Experimental data: US20170368055A1, “METHODS FOR TREATING INFECTIONS” (Melinta Therapeutics, Inc., priority 2014, published 2017)
Where a name gives a salt, the structure may show the parent alone.

What was measured:
[1] = Clinical trial of oral and intravenous-then-oral delafloxacin regimens: adverse event reporting, incidence of diarrhea; format: in vivo, human; conditions: for Abdominal Pain, subjects reporting, number (%) / Diarrhea, subjects reporting, number (%) / Gastrointestinal disorders, subjects reporting, number (%) / Nausea, subjects reporting, number (%): n = 20, safety population; for Percentage of subjects who reported diarrhea: oral capsules
[2] = Phase 1 single-dose crossover study: treatment-emergent adverse events; format: in vivo, human
Method: The pharmacokinetics and relative bioavailabilities of a 300 mg delafloxacin intravenous dosage form according to Example 1 and a 450 mg dose of oral delafloxacin according to Example 4 were measured in a Phase 1, single-dose, open-label, randomized, 2-period, 2-sequence crossover study. 56 healthy subjects received a single 450-mg dose of oral delafloxacin and a single 300-mg delafloxacin IV infusion in 1 of 2 treatment sequences. Plasma samples were analyzed for delafloxacin concentrations with a validated LC-MS/MS method. Pharmacokinetic parameters were calculated using noncompartmental methods.
16 treatment-emergent AEs (TEAE) were reported, the most frequent of which were headache (5.4%), followed by diarrhea (3.6%). 2 TEAEs were considered moderate in severity, but the remainders were considered mild, and none led to study discontinuation.

[3] = Regimens A/B: 400-mg oral capsules (4 × 100-mg)
[4] = Regimen C: 300 mg IV then 400 mg oral capsules
[5] = 56 healthy subjects, single 450-mg oral dose and single 300-mg IV infusion

Row | Structure (SMILES) | Abdominal Pain, subjects reporting, number (%) [1, 3] | Diarrhea, subjects reporting, number (%) [1, 3] | Gastrointestinal disorders, subjects reporting, number (%) [1, 3] | Nausea, subjects reporting, number (%) [1, 3] | Percentage of subjects who reported diarrhea [1] | Abdominal Pain, subjects reporting, number (%) [1, 4] | Diarrhea, subjects reporting, number (%) [1, 4] | Gastrointestinal disorders, subjects reporting, number (%) [1, 4] | Nausea, subjects reporting, number (%) [1, 4] | Side effects reported ([1]; group with intravenous administration followed by oral treatment) | Tolerability ([1]; intravenous formulation (300 mg, 3 days) followed by oral formulation (400 mg BID, 4 days)) | Side effects as compared to all-oral formulations ([1]; intravenous formulation followed by oral formulation) | Diarrhea TEAE frequency [2, 5] | Headache TEAE frequency [2, 5] | Number of treatment-emergent AEs (TEAE) reported [2, 5] | TEAEs that led to study discontinuation ([2]; in vivo) | Number of TEAEs considered moderate in severity ([2]; remainders considered mild)
1 | Nc1nc(-n2cc(C(=O)O)c(=O)c3cc(F)c(N4CC(O)C4)c(Cl)c32)c(F)cc1F [Potassium Salt] | 2 (10.0%) | 3 (15.0%) | 3 (15.0%) | 1 (5.0%) | 15.0% |  |  |  |  |  |  |  |  |  |  |  | 
2 | CNC[C@H](O)[C@@H](O)[C@H](O)[C@H](O)CO.Nc1nc(-n2cc(C(=O)O)c(=O)c3cc(F)c(N4CC(O)C4)c(Cl)c32)c(F)cc1F [Meglumine Salt, D-glucitol, 1-deoxy-1-(methylamino)-, 1-(6-amino-3,5-difluoro-2-pyridinyl)-8-chloro-6-fluoro-1,4-dihydro-7-(3-hydroxy-1-azetidinyl)-4-oxo-3-quinolinecarboxylate] | 0 | 3 (15.0%) | 5 (25.0%) | 0 | 15.0% | 0 | 0 | 0 | 0 | No side effect | well tolerated | reduced side effects |  |  |  |  | 
3 | Nc1nc(-n2cc(C(=O)O)c(=O)c3cc(F)c(N4CC(O)C4)c(Cl)c32)c(F)cc1F [delafloxacin, 1-(6-amino-3,5-difluoro-2-pyridinyl)-8-chloro-6-fluoro-1,4-dihydro-7-(3-hydroxy-1-azetidinyl)-4-oxo-3-quinolinecarboxylic acid] |  |  |  |  |  |  |  |  |  |  |  |  | 3.6% | 5.4% | 16 | none | 2
